How the values were obtained:
[1] = target: T1, Fatty-acid amide hydrolase 1 (Homo sapiens, UniProt O00519); assay: Inhibition of human FAAH expressed in HEK293 cells using arachadonyl 7-amino 4-methyl coumarin amide as substrate by fluorimetric assay; type: cell-based
T1 sequence (O00519 whole entry): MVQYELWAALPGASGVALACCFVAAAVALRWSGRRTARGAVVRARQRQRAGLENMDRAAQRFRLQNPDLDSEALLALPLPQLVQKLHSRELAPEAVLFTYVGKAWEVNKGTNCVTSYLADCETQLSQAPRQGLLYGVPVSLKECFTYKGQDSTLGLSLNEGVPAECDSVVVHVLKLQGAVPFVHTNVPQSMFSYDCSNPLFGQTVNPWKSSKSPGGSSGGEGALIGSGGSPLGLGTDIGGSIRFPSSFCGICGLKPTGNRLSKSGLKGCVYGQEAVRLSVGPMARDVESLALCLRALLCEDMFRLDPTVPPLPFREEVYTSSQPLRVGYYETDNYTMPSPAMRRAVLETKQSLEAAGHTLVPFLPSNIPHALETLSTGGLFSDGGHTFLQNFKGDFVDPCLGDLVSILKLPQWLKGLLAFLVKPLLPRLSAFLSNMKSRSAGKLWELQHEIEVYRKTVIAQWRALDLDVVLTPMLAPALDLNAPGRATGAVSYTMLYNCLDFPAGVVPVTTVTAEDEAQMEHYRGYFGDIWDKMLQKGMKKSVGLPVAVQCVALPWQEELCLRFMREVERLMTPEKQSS

[2] = target: T2, Fatty-acid amide hydrolase 1 (Rattus norvegicus, UniProt P97612); assay: Inhibition of rat FAAH expressed in HEK293 cells using arachadonyl 7-amino 4-methyl coumarin amide as substrate by fluorimetric assay; type: cell-based
T2 sequence (P97612 whole entry): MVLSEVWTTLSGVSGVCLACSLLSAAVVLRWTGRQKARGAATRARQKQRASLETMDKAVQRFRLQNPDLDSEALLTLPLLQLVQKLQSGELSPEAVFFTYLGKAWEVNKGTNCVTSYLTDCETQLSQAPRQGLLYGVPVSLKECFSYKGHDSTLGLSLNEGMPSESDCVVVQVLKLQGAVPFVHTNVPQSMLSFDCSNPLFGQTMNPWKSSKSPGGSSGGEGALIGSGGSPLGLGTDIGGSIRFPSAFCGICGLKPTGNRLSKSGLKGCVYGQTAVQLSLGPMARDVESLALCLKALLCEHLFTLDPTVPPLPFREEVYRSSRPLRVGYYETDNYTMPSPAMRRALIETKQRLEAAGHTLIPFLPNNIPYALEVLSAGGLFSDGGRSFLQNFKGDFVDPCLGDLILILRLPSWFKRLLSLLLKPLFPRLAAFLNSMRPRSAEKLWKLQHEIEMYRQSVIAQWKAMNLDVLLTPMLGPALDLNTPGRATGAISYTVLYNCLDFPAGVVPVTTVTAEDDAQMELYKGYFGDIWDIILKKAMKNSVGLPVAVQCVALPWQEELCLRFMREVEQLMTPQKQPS

[3] = target: T1, Fatty-acid amide hydrolase 1; assay: Reversible inhibition of full length human FAAH assessed as inhibition of 3[H]-anandamide hydrolysis preincubated for 3 hrs measured after 15 mins post substrate addition by cell-based assay
[4] = Inhibition of guinea pig brain FAAH; design: species or system Cavia porcellus
[5] = Inhibition of rabbit brain FAAH; design: species or system Oryctolagus cuniculus

Structure (SMILES) | IC50 [1] [nM] | further results
c1ccc(-c2ccc3oc(NC4CCCCC4)nc3c2)cc1 | > 1000 | –
N#Cc1cc(-c2ccc3oc(NC4CCCCC4)nc3c2)ccc1O | 54 | –
NC(=O)c1cccc(-c2cccc(OC(=O)NC3CCCCC3)c2)c1 [URB-597] | – | IC50 [4]: 26 nM; IC50 [5]: 0.8 nM
c1ccc2c(c1)CN(c1nc3cc(-c4ccc5nccn5c4)ccc3o1)C2 | 14 | –
c1cnc2ccc(-c3ccc4oc(NC5CCCCC5)nc4c3)cc2c1 | > 1000 | –
O=C(Nc1ccccc1)N1CCC(Cc2cnc3ccccc3c2)CC1 | – | IC50 [2]: 17 nM; IC50 [4]: 66 nM; IC50 [5]: 0.8 nM
COc1ccc(-c2ccc3oc(NC4CCCCC4)nc3c2)cc1C | 228 | –
COc1ccc(Nc2nc3cc(-c4ccc5c(ccn5C)c4)ccc3o2)cc1 | 280 | –
Cn1ccc2cc(-c3ccc4oc(Nc5ccncc5)nc4c3)ccc21 | > 1000 | –
NC(=O)c1cccc(-c2ccc3oc(NC4CCCCC4)nc3c2)c1 | > 1000 | –
COCc1ccc(-c2ccc3oc(N4Cc5ccccc5C4)nc3c2)cc1OC | 13 | –
Cn1ccc2cc(-c3ccc4oc(Nc5ccc(F)cc5)nc4c3)ccc21 | 99 | –
Cn1ncc2c(-c3ccc4oc(NC5CCCCC5)nc4c3)cccc21 | 52 | –
c1cc2c(ccn2C2COC2)cc1-c1ccc2oc(NC3CCCCC3)nc2c1 | 579 | –
COc1cc(-c2ccc3oc(N4Cc5ccccc5C4)nc3c2)ccn1 | 10 | –
Cn1ncc2cc(-c3ccc4oc(N5Cc6ccccc6C5)nc4c3)ccc21 | 1.2 | –
Cn1ccc2cc(-c3ccc4oc(Cc5ccccc5)nc4c3)ccc21 | 488 | –
c1cc2cc(-c3ccc4oc(NC5CCCCC5)nc4c3)cnc2[nH]1 | > 1000 | –
CCn1ccc2cc(-c3ccc4oc(Nc5ccccc5)nc4c3)ccc21 | 18 | IC50 [2]: 586 nM; IC50 [3]: 92 nM; IC50 [4]: 424 nM; IC50 [5]: 98 nM
Cn1ccc2cc(-c3ccc4oc(Nc5cccnc5)nc4c3)ccc21 | 226 | –
NC(=O)Cn1ccc2cc(-c3ccc4oc(NC5CCCCC5)nc4c3)ccc21 | 214 | –
Cn1ccc2cc(-c3ccc4oc(Nc5ccccn5)nc4c3)ccc21 | 186 | –
CCCCCCCC/C=C\CCCCCCCC(=O)C(F)(F)F | – | IC50 [3]: 187 nM
Cn1ccc2cc(-c3cccc4nc(N5Cc6ccccc6C5)oc34)ccc21 | > 1000 | –
CN(c1ccccc1)c1nc2cc(-c3ccc4c(ccn4C)c3)ccc2o1 | 68 | –
COc1cccc(-c2ccc3oc(N4Cc5ccccc5C4)nc3c2)c1 | 28 | –
Cn1ncc2c(-c3ccc4oc(N5Cc6ccccc6C5)nc4c3)cccc21 | 3.2 | –
CCn1ccc2cc(-c3ccc4oc(NC5CCCCC5)nc4c3)ccc21 | 207 | –
COCc1ccc(-c2ccc3oc(N4Cc5ccccc5C4)nc3c2)cc1 | 10 | –
Cn1ncc2cc(-c3ccc4oc(NC5CCCCC5)nc4c3)ccc21 | 61 | –

The next lines start with results.

IC50 [1] [nM] | Structure (SMILES) | further results
63 | Cn1ccc2cc(-c3ccc4oc(N5CCN(c6ccccc6)CC5)nc4c3)ccc21 | –
12 | Cn1ccc2cc(-c3ccc4oc(N5Cc6ccccc6C5)nc4c3)ccc21 | IC50 [2]: 413 nM; IC50 [3]: 95 nM; IC50 [4]: 423 nM; IC50 [5]: 42 nM
> 1000 | Cn1ccc2cc(-c3ccc4oc(N5CCNCC5)nc4c3)ccc21 | –
121 | Cn1ccc2cc(-c3ccc4oc(N5Cc6ccncc6C5)nc4c3)ccc21 | –
911 | Cn1ccc2cc(-c3ccc4oc(NC5CCCCC5)nc4c3)ccc21 | –
674 | Cn1ccc2cc(-c3ccc4oc(N5CCCC5)nc4c3)ccc21 | –
> 1000 | Cn1ccc2cc(-c3ccc4nc(N5Cc6ccccc6C5)oc4c3)ccc21 | –
55 | Cn1ccc2cc(-c3ccc4oc(N5CCc6ccccc6C5)nc4c3)ccc21 | –
42 | Cn1ccc2cc(-c3ccc4oc(N5CCn6cccc6C5)nc4c3)ccc21 | –
168 | C[C@@H]1CN(c2nc3cc(-c4ccc5c(ccn5C)c4)ccc3o2)C[C@H](C)O1 | –
211 | Cn1ccc2cc(-c3ccc4oc(N5Cc6cccnc6C5)nc4c3)ccc21 | –
48 | Cn1ccc2cc(-c3ccc4oc(Nc5ccccc5)nc4c3)ccc21 | –
784 | Cn1ccc2cc(-c3ccc4oc(N5CCOCC5)nc4c3)ccc21 | –
> 1000 | CNc1nc2cc(-c3ccc4c(ccn4C)c3)ccc2o1 | –
